Literature values as cited in patent publication US7390503B1, “Ondansetron orally disintegrating tablets” (Barr Laboratories, Inc., priority 2003, dated 2008).
Where a name gives a salt, the structure may show the parent alone. Read-outs that look alike come from different tables or passages of the source.

Settings: general statement, no test described

Structure (SMILES)	solubility in water	solubility in water (hydrochloride dihydrate)
Cc1nccn1CC1CCc2c(c3ccccc3n2C)C1=O (centres unmarked) [ondansetron in free base form, 1,2,3,9-tetrahydro-9-methyl-3-[(2-methyl-1H-imidazol-1-yl)methyl]-4H-carbazol-4-one]	soluble in water	–
Cc1nccn1CC1CCc2c(c3ccccc3n2C)C1=O (centres unmarked) [Ondansetron hydrochloride dihydrate]	–	freely soluble in water
